Like-named read-outs stand apart in the source and are kept apart here.
Columns and labels:
Assay in all cases: microbe, parasite or virus in culture
Format in all cases: cell-based, influenza virus H1N1
[1] = test system: VX-787-resistant A/PR/8/34 (H1N1)
[2] = test system: Baloxavir-resistant A/PR/8/34 (H1N1)
[3] = test system: Oseltamivir-resistant A/Weiss/43 (H1N1)

Row | Compound | EC50 ([1]; Influenza A virus, MDCK, 120 h) | EC50 ([2]; Influenza A virus, MDCK, 120 h) | EC50 ([3]; Influenza A virus, H1N1, MDCK, 120 h) | EC50 ([1]; read-out: EC50) | EC50 ([2]; read-out: EC50) | EC50 ([3]; read-out: EC50)
1 | O=C1c2c(O)c(=O)ccn2N([C@@H]2c3ccccc3SCc3c2ccc(F)c3F)[C@@H]2COCCN12 [Baloxavir, baloxivir] | 0.58 nM | 95 nM |  |  |  | 
2 | CCC(CC)O[C@@H]1C=C(C(=O)O)C[C@H](N)[C@H]1NC(C)=O [Oseltamivir acid] | 1060 nM | 2380 nM | > 100000 nM |  |  | 
3 | CC(=O)N[C@H]1[C@H]([C@H](O)[C@H](O)CO)OC(C(=O)O)=C[C@@H]1N=C(N)N [Zanamivir, zanamivir, reference compound] |  |  |  | 167 nM | 1390 nM | 24.4 nM
